Reference: ChEMBL document CHEMBL1145084, “Polymer-assisted solution-phase library synthesis and crystal structure of alpha-ketothiazoles as tissue factor VIIa inhibitors” (J Med Chem, 2003)

Molecular target: Thrombin and coagulation factor VII (Homo sapiens) (UniProt P00734+P08709)
Assay: Selectivity for coagulation factor VIIa over thrombin IIa.
Type: protein assay

| Selectivity | SMILES |
| --- | --- |
| 71 | Cc1cccc(C[C@H](NC(=O)[C@@H](Cc2ccccc2)NS(=O)(=O)Cc2ccccc2)C(=O)N[C@@H](CCCN=C(N)N)C(=O)c2nccs2)c1 |
| 63 | N=C(N)NCCC[C@H](NC(=O)[C@H](Cc1cccc(Cl)c1)NC(=O)[C@@H](Cc1ccccc1)NS(=O)(=O)Cc1ccccc1)C(=O)c1nccs1 |
| 95 | N=C(N)NCCC[C@H](NC(=O)[C@H](Cc1ccccc1)NC(=O)[C@@H](Cc1ccccc1)NS(=O)(=O)Cc1ccccc1)C(=O)c1nccs1 |
| 106 | N=C(N)NCCC[C@H](NC(=O)[C@H](Cc1cccc(C(F)(F)F)c1)NC(=O)[C@@H](Cc1ccccc1)NS(=O)(=O)Cc1ccccc1)C(=O)c1nccs1 |
| 147 | N#Cc1ccc(C[C@H](NC(=O)[C@@H](Cc2ccccc2)NS(=O)(=O)Cc2ccccc2)C(=O)N[C@@H](CCCNC(=N)N)C(=O)c2nccs2)cc1 |
| 5 | CN(C)CCCC[C@H](NC(=O)[C@@H](Cc1ccccc1)NS(=O)(=O)Cc1ccccc1)C(=O)N[C@@H](CCCN=C(N)N)C(=O)c1nccs1 |
| 70 | N=C(N)NCCC[C@H](NC(=O)[C@H](Cc1ccc(F)c(F)c1)NC(=O)[C@@H](Cc1ccccc1)NS(=O)(=O)Cc1ccccc1)C(=O)c1nccs1 |
| > 333 | N=C(N)NCCC[C@H](NC(=O)[C@H](Cc1ccccc1F)NC(=O)[C@@H](Cc1ccccc1)NS(=O)(=O)Cc1ccccc1)C(=O)c1nccs1 |
| 500 | N=C(N)NCCC[C@H](NC(=O)[C@H](Cc1cccnc1)NC(=O)[C@@H](Cc1ccccc1)NS(=O)(=O)Cc1ccccc1)C(=O)c1nccs1 |
| > 5 | N=C(N)NCCC[C@H](NC(=O)[C@H](Cc1ccc([N+](=O)[O-])cc1)NC(=O)[C@@H](Cc1ccccc1)NS(=O)(=O)Cc1ccccc1)C(=O)c1nccs1 |
| 58 | N=C(N)NCCC[C@H](NC(=O)[C@H](CC(N)=O)NC(=O)[C@@H](Cc1ccccc1)NS(=O)(=O)Cc1ccccc1)C(=O)c1nccs1 |
| 69 | N#CC[C@H](NC(=O)[C@@H](Cc1ccccc1)NS(=O)(=O)Cc1ccccc1)C(=O)N[C@@H](CCCNC(=N)N)C(=O)c1nccs1 |
| 64 | CC[C@@H](C)[C@H](NC(=O)[C@@H](Cc1ccccc1)NS(=O)(=O)Cc1ccccc1)C(=O)N[C@@H](CCCN=C(N)N)C(=O)c1nccs1 |
| 90 | Cc1ccccc1C[C@H](NC(=O)[C@@H](Cc1ccccc1)NS(=O)(=O)Cc1ccccc1)C(=O)N[C@@H](CCCN=C(N)N)C(=O)c1nccs1 |
| 8 | CC(=O)Nc1ccc(C[C@H](NC(=O)[C@@H](Cc2ccccc2)NS(=O)(=O)Cc2ccccc2)C(=O)N[C@@H](CCCN=C(N)N)C(=O)c2nccs2)cc1 |
| 75 | N=C(N)NCCC[C@H](NC(=O)[C@H](Cc1cccc(F)c1)NC(=O)[C@@H](Cc1ccccc1)NS(=O)(=O)Cc1ccccc1)C(=O)c1nccs1 |
| 0.6 | CC(C)(C)C[C@H](NC(=O)[C@@H](Cc1ccccc1)NS(=O)(=O)Cc1ccccc1)C(=O)N[C@@H](CCCN=C(N)N)C(=O)c1nccs1 |
